Experimental data published in ChEMBL document CHEMBL5390254, “Discovery and Optimization of Novel hDHODH Inhibitors for the Treatment of Inflammatory Bowel Disease” (J Med Chem, 2023).
Active and inactive are the calls of the source. The calls are words filed in the database; no cut-off is given here.

Columns and labels:
[1] = Cmax in Sprague-Dawley rat at 15 mg/kg, po and measured upto 48 hrs by LC-MS/MS analysis; assay type: ADME, organism-based; design: dose 15 mg/kg, time < 48 hrs, route po; settings: in vivo
[2] = Acute toxicity in BALB/c mouse assessed as changes in TP level in serum at 600 mg/kg,po and measured after 14 days by Biochemistry analysis; assay type: organism-based; settings: in vivo, 336 h, time 14 day
[3] = Acute toxicity in BALB/c mouse assessed as changes in urea level in serum at 600 mg/kg,po and measured after 14 days by Biochemistry analysis; assay type: organism-based; settings: in vivo, 336 h, time 14 day
[4] = Clearance in Sprague-Dawley rat at 15 mg/kg, po and measured upto 48 hrs by LC-MS/MS analysis; assay type: ADME, organism-based; settings: in vivo
Mus musculus [5] = experiment: Anti-inflammatory activity against DSS-induced acute ulcerative colitis in C57BL/6 mouse model assessed as increase in colon length at 80 mg/kg, po QD for 6 days (Rvb= 5.3cm); assay type: functional; settings: time 6 day
Mus musculus [6] = experiment: Anti-inflammatory activity against DSS-induced acute ulcerative colitis in C57BL/6 mouse model assessed as decrease in IL-6 mRNA expression level in colon at 40 mg/kg, po QD for 6 days by RT-PCR analysis; assay type: functional, organism-based; settings: time 6.0 day
[7] = Metabolic stability in human liver microsomes assessed as intrinsic clearance at 3 uM incubated upto 90 mins in presence of NADPH by LC-MS/MS analysis; assay type: ADME, Microsome; settings: read-out: CLH
[8] = Acute toxicity in BALB/c mouse assessed as changes in hemoglobin level in blood at 600 mg/kg,po and measured after 14 days by hematology test; assay type: organism-based; settings: in vivo, 336 h, time 14 day
[9] = Metabolic stability in mouse liver microsomes assessed as half life at 3 uM incubated upto 90 mins in presence of NADPH by LC-MS/MS analysis; assay type: ADME, Microsome
[10] = Drug distribution in colon of DSS-induced acute ulcerative colitis in C57BL/6 mouse model at 40 mg/kg,po and measured after 0.5 hrs by LC-MS/MS analysis; assay type: ADME, organism-based; settings: in vivo
Mus musculus [11] = experiment: Anti-inflammatory activity against DSS-induced acute ulcerative colitis in C57BL/6 mouse model assessed as decrease in IL-6 mRNA expression level in colon at 20 to 80 mg/kg, po QD for 6 days by RT-qPCR analysis; assay type: functional, organism-based; settings: dose 20-80 mg/kg, time 6.0 day
[12] = Metabolic stability in human liver microsomes assessed as half life at 3 uM incubated upto 90 mins in presence of NADPH by LC-MS/MS analysis; assay type: ADME, Microsome
Mus musculus [13] = experiment: Anti-inflammatory activity against DSS-induced acute ulcerative colitis in C57BL/6 mouse model assessed as recovery in colon damage at 20 to 80 mg/kg, po QD for 6 days by H and E staining based microscopy; assay type: functional, organism-based; settings: dose 20-80 mg/kg, time 6.0 day
[14] = Acute toxicity in BALB/c mouse assessed as changes in CK level in serum at 600 mg/kg,po and measured after 14 days by Biochemistry analysis; assay type: organism-based; settings: in vivo, 336 h, time 14 day
Mus musculus [15] = experiment: Anti-inflammatory activity against DSS-induced acute ulcerative colitis in C57BL/6 mouse model assessed as decrease in DAI score at 20 to 80 mg/kg, po QD for 6 days; assay type: functional, organism-based; settings: dose 20-80 mg/kg, time 6.0 day
[16] = Acute toxicity in BALB/c mouse assessed as changes in WBC level in blood at 600 mg/kg,po and measured after 14 days by hematology test; assay type: organism-based; settings: in vivo, 336 h, time 14 day
Mus musculus [17] = experiment: Anti-inflammatory activity against DSS-induced acute ulcerative colitis in C57BL/6 mouse model assessed as decrease in IL-17 production in colon at 40 mg/kg, po QD for 6 days by ELISA; assay type: functional; design: scale not given: the % may be the effect or the level left; settings: time 6 day
Mus musculus [18] = experiment: Anti-inflammatory activity against DSS-induced acute ulcerative colitis in C57BL/6 mouse model assessed as decrease in IL-6 protein level in colon at 20 to 80 mg/kg, po QD for 6 days by ELISA; assay type: functional, organism-based; settings: dose 20-80 mg/kg, time 6.0 day
Mus musculus [19] = experiment: Anti-inflammatory activity against DSS-induced acute ulcerative colitis in C57BL/6 mouse model assessed as decrease in IL-17 protein level in colon at 20 to 80 mg/kg, po QD for 6 days by ELISA; assay type: functional, organism-based; settings: dose 20-80 mg/kg, time 6.0 day
[20] = Half life in Sprague-Dawley rat at 5 mg/kg, iv and measured upto 48 hrs by LC-MS/MS analysis; assay type: ADME, organism-based; settings: in vivo
Mus musculus [21] = experiment: Anti-inflammatory activity against DSS-induced acute ulcerative colitis in C57BL/6 mouse model assessed as decrease in body weight loss at 80 mg/kg, po QD for 6 days (Rvb= -13.4%); assay type: functional; design: scale not given: the % may be the effect or the level left; settings: time 6 day
[22] = Acute toxicity in BALB/c mouse assessed as changes in AST level in serum at 600 mg/kg,po and measured after 14 days by Biochemistry analysis; assay type: organism-based; settings: in vivo, 336 h, time 14 day
[23] = AUCt in Sprague-Dawley rat at 5 mg/kg, iv and measured upto 48 hrs by LC-MS/MS analysis; assay type: ADME, organism-based; design: dose 5 mg/kg, time < 48 hrs, route iv; settings: in vivo
[24] = Acute toxicity in BALB/c mouse assessed as changes in ALB level in serum at 600 mg/kg,po and measured after 14 days by Biochemistry analysis; assay type: organism-based; settings: in vivo, 336 h, time 14 day
[25] = Acute toxicity in BALB/c mouse assessed as changes in UA level in serum at 600 mg/kg,po and measured after 14 days by Biochemistry analysis; assay type: organism-based; settings: in vivo, 336 h, time 14 day
[26] = Acute toxicity in BALB/c mouse assessed as body weight loss at 600 mg/kg,po and measured for 14 days; assay type: organism-based; settings: in vivo, 336 h, time 14 day
Mus musculus [27] = experiment: Anti-inflammatory activity against DSS-induced acute ulcerative colitis in C57BL/6 mouse model assessed as decrease in IL-1beta mRNA expression level in colon at 20 to 80 mg/kg, po QD for 6 days by RT-qPCR analysis; assay type: functional, organism-based; settings: dose 20-80 mg/kg, time 6.0 day
[28] = Acute toxicity in BALB/c mouse assessed as changes in general health status at 600 mg/kg,po and measured for 14 days; assay type: organism-based; settings: in vivo, 336 h, time 14 day
[29] = Acute toxicity in BALB/c mouse assessed as changes in neutrophil level in blood at 600 mg/kg,po and measured after 14 days by hematology test; assay type: organism-based; settings: in vivo, 336 h, time 14 day
[30] = Acute toxicity in po dosed BALB/c mouse assessed as maximum tolerate dose; assay type: organism-based; settings: in vivo
Mus musculus [31] = experiment: Anti-inflammatory activity against DSS-induced acute ulcerative colitis in C57BL/6 mouse model assessed as decrease in body weight loss at 20 mg/kg, po QD for 6 days (Rvb= -13.4%); assay type: functional; design: scale not given: the % may be the effect or the level left; settings: time 6 day
Mus musculus [32] = experiment: Anti-inflammatory activity against DSS-induced acute ulcerative colitis in C57BL/6 mouse model assessed as decrease in IL-17 mRNA expression level in colon at 20 to 80 mg/kg, po QD for 6 days by RT-qPCR analysis; assay type: functional, organism-based; settings: dose 20-80 mg/kg, time 6.0 day
[33] = Apparent volume of distribution during terminal phase in Sprague-Dawley rat at 15 mg/kg, po and measured upto 48 hrs by LC-MS/MS analysis; assay type: ADME, organism-based; settings: in vivo, read-out: Vz/F
[34] = Metabolic stability in rat liver microsomes assessed as intrinsic clearance at 3 uM incubated upto 90 mins in presence of NADPH by LC-MS/MS analysis; assay type: ADME, Microsome; settings: read-out: CLH

Nc1nc(-c2cn(Cc3c(F)cccc3Cl)c3ncccc23)ncc1C1CC1
Cmax [1]: 2680 ng/mL
Activity [2]: Non-Toxic
Activity [3]: Non-Toxic
CL/F [4]: 21.7 mL/min/kg
Activity (Mus musculus [5]): 7.5 cm
Activity (Mus musculus [6]): Active
CLint scaled at 3 µM [7]: 91.8 mL/min/kg
Activity [8]: Non-Toxic
half-life at 3 µM [9]: 9.4 min
Drug uptake [10]: Active
Activity (Mus musculus [11]): Dose-Dependent Effect
half-life at 3 µM [12]: 18.9 min
Activity (Mus musculus [13]): Dose-Dependent Effect
Activity [14]: Non-Toxic
Activity (Mus musculus [15]): Dose-Dependent Effect
Activity [16]: Non-Toxic
Activity (Mus musculus [17]): 57.35%
Activity (Mus musculus [18]): Dose-Dependent Effect
Activity (Mus musculus [19]): Dose-Dependent Effect
half-life [20]: 156 min
Activity (Mus musculus [21]): 1.4%
Activity [22]: Non-Toxic
AUC(0-t) at 48 h [23]: 17900 ng·h/mL
Activity [24]: Non-Toxic
Activity [25]: Non-Toxic
Activity [26]: Non-Toxic
Activity (Mus musculus [27]): Dose-Dependent Effect
Activity [28]: Non-Toxic
Activity [29]: Non-Toxic
MTD [30]: 600 mg/kg
Activity (Mus musculus [31]): -5.1%
Activity (Mus musculus [32]): Dose-Dependent Effect
Vd/F [33]: 2.95 L/kg
CLint scaled at 3 µM [34]: 319 mL/min/kg
